Data: US4560748A, “Streptothricin-group compounds” (Ajinomoto Company Incorporated, priority 1982, dated 1985)
In brackets after ≈: the same amount, converted by molar mass.

How the values were obtained:
[1] = system: LEWIS lung carcinoma; conditions: reported for the known agent, cited from earlier work
[2] = system: LEWIS lung carcinoma; test: Effect on LEWIS lung carcinoma in BDF1 mice; format: in vivo, mouse; conditions: for Reduction of tumor size / I.L.S.: intraperitoneally daily for 1-10 days; for I.L.S.: increase in life span; for Antitumor activity: against LEWIS lung carcinoma in mouse; for Life prolongation effects compared with BLM: mouse suffered from LEWIS lung carcinoma
Method: LEWIS lung carcinoma (1 mm^3) was transplanted subcutaneously into BDF1 mice. After 24 hours of the transplantation, AN-201(I), (II) and BLM were intraperitoneally injected daily for 1-10 days. Antitumor activity was indicated with a reduction in tumor size or with a increase in life span.

[3] = ED50 on normal cells 3T3; format: cell-based; conditions: mouse; normal 3T3 cells; 2 days; read-out: ED50 33T3(N)
Method: (§1) Normal cells, 3T3 and SV-40-transformed 3T3 cells, (SV3T3) were cultured in Eagle's minimal essential medium supplemented with 10% calf serum, 5 μg/ml of cefazoline and 100 μg/ml of streptomycin at the initial cell concentration of 4×10^4 cells/2 cm^2 for 3T3 and 2×10^4 cells/2 cm^2 for SV3T3 at 37° C. in 7% CO2 incubator. After one day of cultivation old medium was removed from tissue culture plate and various concentrations of drug diluted with new medium were added to the Falcon tissue culture plate. After 2 days of cultivation, the cell density was measured and the value of ED50 was determined. N/T ratio was calculated from ED50 value of normal cell, 3T3, to transformed cell, SV3T3.

[4] = system: mouse leukemia L 1210 cells; test: Effect on L 1210 cell (relative multiplication number); format: cell-based; conditions: L1210, 120 h, 5 days, 0 μg/ml = 100; for activity at 10 µg/mL: 10 μg/ml; for activity at 20 µg/mL: 20 μg/ml; for activity at 40 µg/mL: 40 μg/ml; for activity at 50 µg/mL: 50 μg/ml; for activity at 60 µg/mL: 60 μg/ml
Method: A 10.28 g sample of RPMI 1640 powder medium (DAI-NIPPON SEIYAKU) was dissolved into 1.0 liter distilled water and 1.0 g NaHCO3 was added to it. Then the solution was filtered through a Millipore filter (pore size: 0.22μ) and supplemented with 100 ml of germ-free blood serum. One ml portions of the culture medium thus prepared were placed into Falcon Multi Well aseptically. Then a 0.05 ml culture sample of mouse leukemia L 1210 cells previously cultured was inoculated into each batch of the culture medium, and a definite amount of purified AN-201(I) or (II) dissolved in the same medium was added simultaneously to the culture medium. Thereafter, the inoculated media were incubated in a CO2 gas incubator (concentration of CO2 gas: 7.0%) at […]. After 5 days incubation, the numbers of multiplied cells were counted under a microscope and the relative multiplication numbers obtained are shown in Table 4.

[5] = system: Staphylococcus aureus FDA 209 P; test: Antimicrobial activity (MIC), broth culture; format: cell-based; conditions: for MIC: FDA209, Staphylococcus aureus FDA 209 P, 37° C., 20 hours; for Antimicrobial activity: against Streptococcus aureus FDA 209P
Method: (§2) Two ml portions of M3 -Medium (Bactoantibiotic Medium--Difico, 1.75%, pH 7.2) were placed into test tubes and heated at 120° C. for 10 minutes. Each test strain in Table 1 was inoculated into a batch of culture medium, and the inoculated batches were cultured with shaking at 30° C. for 20 hours to obtain seed culture broths. A 0.05 ml sample of each culture broth was inoculated into 20 ml of M3 -Medium containing […] or (II). The inoculates were cultured at 37° C. for 20 hours with shaking. Thereafter, the optical density of each resultant culture broth at 660 nm was determined, and the minimum inhibition concentration (MIC) of each broth was calculated, and is shown in Table 1.

[6] = system: Bacillus subtilis ATCC 6633; test: Antimicrobial activity (MIC), broth culture; format: cell-based; conditions: for MIC: ATCC6633, Bacillus subtilis ATCC 6633, 37° C., 20 hours; for Antimicrobial activity: against Bacillus subtilis ATCC 6633
Method: as §2

[7] = system: Sarcina lutia ATCC 93412; test: Antimicrobial activity (MIC), broth culture; format: cell-based; conditions: for MIC: Sarcina, ATCC93412, 20 h; for Antimicrobial activity: against Sarchina lutea ATCC 9341
Method: as §2

[8] = system: Pseudomonas aeruginosa ATCC 10145; test: Antimicrobial activity (MIC), broth culture; format: cell-based; conditions: ATCC10145, 37° C., 20 hours
Method: as §2

[9] = system: Escherichia coli K-12 ATCC 10798; test: Antimicrobial activity (MIC), broth culture; format: cell-based; conditions: ATCC10798, 37° C., 20 hours
Method: as §2

[10] = system: SV3T3; test: ED50 on SV-40-transformed 3T3 cells and selective cytotoxic effect; format: cell-based, mouse; conditions: for Cytotoxicity compared with BLM: 3T3 cell transformed with SV-40; for Selective cytotoxic effect (N/T ratio): ED50 of normal cell 3T3 to transformed cell SV3T3, 2880 min; for IC50: Mus musculus, SV3T3, 48 h, SV-40-transformed 3T3 cells, 2 days, read-out: ED50 SV3T3(T); for Antitumor activity (selective cytotoxicity): against 3T3 cell transformed with SV-40
Method: as §1

[11] = system: mouse fibroblast cell 3T3 transformed with Semian virus-40 (SV 3T3); test: Number of injured cells, SV 3T3 (transformed with Semian virus-40); format: cell-based; set-up: key: -: none of the cells injured; +: half of the cells injured; ++: about 2/3 of the cells injured; +++: almost all of the cells injured; conditions: 3 days
Method: (§3) MEM Uldecco powder (DAI-NIPPON SEIYAKU) (13.45 g) was dissolved in 1 l of distilled water and 2 ml of 7.5% NaHCO3 solution was added to the solution. Then the solution was filtered through a Millipore filter (pore size: 0.22μ) and supplemented with 100 ml of germ-free blood serum. Into a micro test plate (Falcon), 0.15 ml portions of the culture medium thus prepared were placed. Then a 0.05 ml culture sample of previously cultured mouse fibroblast cell 3T3 or mouse fibroblast cell 3T3 transformed with Semian virus-40 (SV 3T3) was inoculated into each portion of the culture medium. Thereafter, the inoculated media were incubated in a CO2 gas incubator (concentration of CO2 gas: 7.0%) at 37° C. for 24 hours. Into the media AN-201(I) or (II) was added to contain 20 μg/ml, 40 μg/ml, 50 μg/ml or 60 μg/ml, and additional cultivation was carried out for 3 days. Number of injured cell in each medium was counted with an invert microscope using a Thama hematometer.

[12] = system: mouse fibroblast cell 3T3; test: Number of injured cells, mouse fibroblast 3T3; format: cell-based; set-up: key: -: none of the cells injured; +: half of the cells injured; ++: about 2/3 of the cells injured; +++: almost all of the cells injured; conditions: 3 days
Method: as §3

[13] = system: Escherichia coli MP-2; test: Antimicrobial activity (MIC), broth culture; format: cell-based; conditions: MP2, 37° C., 20 hours
Method: AN-201(I) and (II) can be assayed by determining anti-microbial activity to E. coli MP-2 (FERM-P 5432) (Agric. Biol. Chem., 43, 371, (1979)), which has permeability for high molecular compounds.
as §2

Compound	CC50 at 48 h [3] [µg/mL]	activity at 10 µg/mL [4] [%]	activity at 20 µg/mL [4] [%]	activity at 40 µg/mL [4] [%]	activity at 50 µg/mL [4] [%]	activity at 60 µg/mL [4] [%]	Reduction of tumor size ([2]; 9 mg/kg)	Antitumor activity [2]	I.L.S. ([2]; 9 mg/kg)	Life prolongation effects compared with BLM [2]	MIC [5] [µg/mL]	Antimicrobial activity [5]	MIC [6] [µg/mL]	Antimicrobial activity [6]	MIC [7] [µg/mL]	Antimicrobial activity [7]	MIC [8] [µg/mL]	MIC [9] [µg/mL]	Cytotoxicity compared with BLM [10]	Selective cytotoxic effect (N/T ratio) [10]	also measured
bleomycin [BLM, reference compound]																					Antitumor activity (reported) ([1]; LEWIS lung carcinoma in mouse): notable antitumor activity; Chemotherapeutic coefficient (reported) [1]: very high; Reduction of tumor size ([2]; 5 mg/kg): 52-60%; Reduction of tumor size ([2]; 10 mg/kg): 65-80%; I.L.S. ([2]; 5 mg/kg): 100-110%; I.L.S. ([2]; 10 mg/kg): 119-124%
CC(=O)NC(CCCNC(=O)CC(N)CCCNC(=O)CC(N)CCCN)CC(=O)NC1C(N=C2NC3C(=O)NCC(O)C3N2)OC(CO)C(OC(N)=O)C1O (centres unmarked) [AN-201(II)]	50 (≈ 62.4 µM)	100	80	25	0	0	74-85%	positive	124-135%	greater life prolongation effects	2 (≈ 2.5 µM)	positive	1.5 (≈ 1.87 µM)	positive	5 (≈ 6.24 µM)	positive	> 50	> 50	more strongly and selectively cytotoxic	3.3	Reduction of tumor size ([2]; 1 mg/kg): 50-57%; Reduction of tumor size ([2]; 3 mg/kg): 54-60%; I.L.S. ([2]; 1 mg/kg): 101-110%; I.L.S. ([2]; 3 mg/kg): 121-130%; IC50 [10]: 15 µg/mL (≈ 18.7 µM); Antitumor activity (selective cytotoxicity) [10]: cytotoxic selectively; Number of Injured Cell ([11]; 20 μg/ml): -; Number of Injured Cell ([11]; 40 μg/ml): +; Number of Injured Cell ([11]; 50 μg/ml): +++; Number of Injured Cell ([11]; 60 μg/ml): +++; Number of Injured Cell ([12]; 20 μg/ml): -; Number of Injured Cell ([12]; 40 μg/ml): -; Number of Injured Cell ([12]; 50 μg/ml): +; Number of Injured Cell ([12]; 60 μg/ml): ++; MIC [13]: 4 µg/mL (≈ 4.99 µM)
CC(=O)NC(CCCNC(=O)CC(N)CCCN)CC(=O)NC1C(N=C2NC3C(=O)NCC(O)C3N2)OC(CO)C(OC(N)=O)C1O (centres unmarked) [AN-201(I)]	55 (≈ 81.8 µM)	100	80	30	0	0	45-50%	positive	114-120%	greater life prolongation effects	2 (≈ 2.97 µM)	positive	2.7 (≈ 4.01 µM)	positive	5 (≈ 7.43 µM)	positive	> 50	> 50	more strongly and selectively cytotoxic	2.2	Reduction of tumor size ([2]; 18 mg/kg): 50-65%; I.L.S. ([2]; 18 mg/kg): 120-125%; IC50 [10]: 25 µg/mL (≈ 37.2 µM); Antitumor activity (selective cytotoxicity) [10]: cytotoxic selectively; Number of Injured Cell ([11]; 20 μg/ml): -; Number of Injured Cell ([11]; 40 μg/ml): +; Number of Injured Cell ([11]; 50 μg/ml): +++; Number of Injured Cell ([11]; 60 μg/ml): +++; Number of Injured Cell ([12]; 20 μg/ml): -; Number of Injured Cell ([12]; 40 μg/ml): -; Number of Injured Cell ([12]; 50 μg/ml): +; Number of Injured Cell ([12]; 60 μg/ml): ++; MIC [13]: 20 µg/mL (≈ 29.7 µM)
